This is an account of results in ChEMBL document CHEMBL1151605, “2-Heterocyclic indole-3-sulfones as inhibitors of HIV-1 reverse transcriptase” (Bioorg Med Chem Lett, 1995).

Some results are limits rather than exact numbers.

Assay [1] relates to MT4. The experiment in a line: Antiviral activity in cell culture tested ex vivo in MT-4 cells using the IIIb strain of HIV-1. The following applies: Homo sapiens, read-out: CIC95. It counts as functional.
For assay [2], the target named is Human immunodeficiency virus type 1 reverse transcriptase (Human immunodeficiency virus 1, UniProt Q72547, K103N). The experiment in a line: Inhibitory activity against K103N mutant of HIV-1 reverse transcriptase.
Assay [3] addresses Human immunodeficiency virus type 1 reverse transcriptase (Human immunodeficiency virus 1, UniProt Q72547, K103N/Y181C). The assay can be described thus: Inhibitory activity against K103N/Y181C double mutant of HIV-1 reverse transcriptase.

Take `Cc1nc(-c2[nH]c3ccc(Cl)cc3c2S(=O)(=O)c2ccccc2)[nH]c1C`: the IC95 in assay [1] worked out at 12 nM. For the same compound, the concentration for half-maximal inhibition (IC50) in assay [2] is 22 nM; in assay [3], more than 30000 nM.
With `CCc1nc(-c2[nH]c3ccc(Cl)cc3c2S(=O)(=O)c2ccccc2)[nH]c1CC`, in assay [1], the IC95 came out at 50 nM.
On the same count and under the same terms, in the case of `O=S(=O)(c1ccccc1)c1c(-c2nc3c([nH]2)CCCC3)[nH]c2ccc(Cl)cc12` it was 50 nM.
Same read-out and setting: the value for `Nc1nc(-c2[nH]c3ccc(Cl)cc3c2S(=O)(=O)c2ccccc2)cs1` was more than 200 nM.
Turning to `CCCc1[nH]c(-c2[nH]c3ccc(Cl)cc3c2S(=O)(=O)c2ccccc2)nc1C`, the IC95 in assay [1] came out at 50 nM.
On the same count and under the same terms, in the case of `O=S(=O)(c1ccccc1)c1c(-c2ncc[nH]2)[nH]c2ccc(Cl)cc12` it was 2 nM; in that of `Cc1cnc(-c2[nH]c3ccc(Cl)cc3c2S(=O)(=O)c2ccccc2)[nH]1`, 12 nM.
As for `O=S(=O)(c1ccccc1)c1c(C2=NCCS2)[nH]c2ccc(Cl)cc12`, it took 1250 nM to reach half-maximal inhibition in assay [2] (IC50). This counts as single-digit micromolar.

Broadly, the IC50 is the concentration that gives 50% inhibition. The low end stands for higher potency, the high end for lower potency.
